From patent US6683027B2, “Herbicidal mixtures” (BASF Aktienegesellschaft, priority 2000, dated 2004)

Columns and labels:
Assay type in all cases: in vivo
Galium aparine [1] = assay: greenhouse pre-emergence trial, percent damage vs untreated control 21 days after treatment; conditions: GALAP
Papaver rhoeas [2] = assay: as above; conditions: PAPRH
Lolium perenne [3] = assay: as above; conditions: 3.75 g/ha, LOLPE
Matricaria inodora = assay: greenhouse post-emergence trial, percent damage vs untreated control 21 days after treatment; conditions: MATIN
Method: (§1) The trials are carried out under greenhouse conditions in pre- and post-emergence applications. The plant seeds are sown in pots containing a loamy sand soil (0.5 l). The herbicides are applied as single treatments, or in a combination comprising a compound of formula I and compound selected from group (2) as defined above, before or after emergence of weeds and crop. The herbicidal performance is assessed as percent damage in comparison to the untreated control plants. The assessment is done 21 days after the treatment. Wheat and barley are treated at the 3-4 leaf stage, the broad-leaf weeds at the 2-4 leaf stage and annual grasses at the 2-3 leaf stage.

Setaria viridis = assay: as above; conditions: SETVI
Method: as §1

Galium aparine [4] = assay: as above; conditions: GALAP
Method: as §1

Apera spica-venti = assay: as above; conditions: APESV
Method: as §1

Lolium perenne [5] = assay: as above; conditions: LOLPE
Method: as §1

Alopecurus myosuroides [6] = assay: as above; conditions: ALOMY
Method: as §1

Stellaria media [7] = assay: as above; conditions: STEME
Method: as §1

Veronica persica [8] = assay: as above; conditions: 3.75 g/ha, VERPE, Example 1B
Method: as §1

Lamium purpureum [9] = assay: as above; conditions: LAMPU
Method: as §1

Papaver rhoeas [10] = assay: as above; conditions: PAPRH, Example 1B
Method: as §1

Veronica persica [11] = assay: greenhouse pre-emergence trial, percent damage vs untreated control 21 days after treatment; conditions: VERPE
Alopecurus myosuroides [12] = assay: as above; conditions: ALOMY
Lamium purpureum [13] = assay: as above; conditions: 3.75 g/ha, LAMPU, Example 1A
Stellaria media [14] = assay: as above; conditions: STEME

FC(F)(F)c1ccc(-c2nccc(Oc3cccc(C(F)(F)F)c3)n2)cc1 [Compound A, 4-(3-trifluoromethylphenoxy)-2-(4-trifluoromethylphenyl)-pyrimidine]
Compound A alone (% control) (Galium aparine [1]; 3.75 g/ha, Example 1A): 0%
Compound A alone (% control) (Galium aparine [1]; 3.75 g/ha, Example 2): 0%
Compound A alone (% control) (Galium aparine [1]; 7.5 g/ha, Example 2): 0%
Compound A alone (% control) (Galium aparine [1]; 15 g/ha, Example 2): 10%
Compound A alone (% control) (Galium aparine [1]; 15 g/ha, Example 3): 0%
Compound A alone (% control) (Galium aparine [1]; 30 g/ha, Example 3): 0%
Compound A alone (% control) (Galium aparine [1]; 60 g/ha, Example 3): 10%
Compound A alone (% control) (Papaver rhoeas [2]; 3.75 g/ha, Example 1A): 63%
Compound A alone (% control) (Papaver rhoeas [2]; 3.75 g/ha, Example 2): 0%
Compound A alone (% control) (Papaver rhoeas [2]; 7.5 g/ha, Example 2): 15%
Compound A alone (% control) (Lolium perenne [3]; Example 1A): 5%
Compound A alone (% control) (Lolium perenne [3]; Example 2): 15%
Compound A alone (% control) (Matricaria inodora; 3.75 g/ha, Example 10): 5%
Compound A alone (% control) (Matricaria inodora; 7.5 g/ha, Example 10): 13%
Compound A alone (% control) (Matricaria inodora; 7.5 g/ha, Example 13): 15%
Compound A alone (% control) (Matricaria inodora; 15 g/ha, Example 9): 48%
Compound A alone (% control) (Matricaria inodora; 15 g/ha, Example 10): 30%
Compound A alone (% control) (Setaria viridis; 3.75 g/ha, Example 1B): 0%
Compound A alone (% control) (Setaria viridis; 3.75 g/ha, Example 4): 15%
Compound A alone (% control) (Setaria viridis; 3.75 g/ha, Example 5): 0%
Compound A alone (% control) (Setaria viridis; 3.75 g/ha, Example 9): 0%
Compound A alone (% control) (Setaria viridis; 3.75 g/ha, Example 10): 4%
Compound A alone (% control) (Setaria viridis; 3.75 g/ha, Example 14): 0%
Compound A alone (% control) (Setaria viridis; 7.5 g/ha, Example 1B): 23%
Compound A alone (% control) (Setaria viridis; 7.5 g/ha, Example 5): 8%
Compound A alone (% control) (Setaria viridis; 7.5 g/ha, Example 9): 5%
Compound A alone (% control) (Setaria viridis; 7.5 g/ha, Example 10): 15%
Compound A alone (% control) (Setaria viridis; 15 g/ha, Example 1B): 55%
Compound A alone (% control) (Setaria viridis; 15 g/ha, Example 5): 58%
Compound A alone (% control) (Galium aparine [4]; 3.75 g/ha, Example 5): 10%
Compound A alone (% control) (Galium aparine [4]; 3.75 g/ha, Example 10): 13%
Compound A alone (% control) (Galium aparine [4]; 3.75 g/ha, Example 14): 40%
Compound A alone (% control) (Galium aparine [4]; 7.5 g/ha, Example 5): 23%
Compound A alone (% control) (Galium aparine [4]; 15 g/ha, Example 10): 20%
Compound A alone (% control) (Galium aparine [4]; 15 g/ha, Example 12): 0%
Compound A alone (% control) (Galium aparine [4]; 30 g/ha, Example 12): 20%
Compound A alone (% control) (Galium aparine [4]; 60 g/ha, Example 10): 55%
Compound A alone (% control) (Apera spica-venti; 3.75 g/ha, Example 1B): 25%
Compound A alone (% control) (Apera spica-venti; 3.75 g/ha, Example 7): 10%
Compound A alone (% control) (Apera spica-venti; 3.75 g/ha, Example 8): 10%
Compound A alone (% control) (Apera spica-venti; 3.75 g/ha, Example 12): 0%
Compound A alone (% control) (Apera spica-venti; 7.5 g/ha, Example 1B): 35%
Compound A alone (% control) (Apera spica-venti; 7.5 g/ha, Example 4): 50%
Compound A alone (% control) (Apera spica-venti; 7.5 g/ha, Example 10): 20%
Compound A alone (% control) (Apera spica-venti; 7.5 g/ha, Example 13): 10%
Compound A alone (% control) (Apera spica-venti; 7.5 g/ha, Example 14): 5%
Compound A alone (% control) (Apera spica-venti; 15 g/ha, Example 1B): 40%
Compound A alone (% control) (Apera spica-venti; 15 g/ha, Example 10): 50%
Compound A alone (% control) (Apera spica-venti; 15 g/ha, Example 14): 10%
Compound A alone (% control) (Apera spica-venti; 30 g/ha, Example 5): 68%
Compound A alone (% control) (Apera spica-venti; 30 g/ha, Example 12): 53%
Compound A alone (% control) (Lolium perenne [5]; 3.75 g/ha, Example 1B): 10%
Compound A alone (% control) (Lolium perenne [5]; 3.75 g/ha, Example 12): 0%
Compound A alone (% control) (Lolium perenne [5]; 7.5 g/ha, Example 1B): 28%
Compound A alone (% control) (Lolium perenne [5]; 7.5 g/ha, Example 4): 23%
Compound A alone (% control) (Lolium perenne [5]; 15 g/ha, Example 1B): 50%
Compound A alone (% control) (Lolium perenne [5]; 15 g/ha, Example 5): 23%
Compound A alone (% control) (Lolium perenne [5]; 30 g/ha, Example 6): 60%
Compound A alone (% control) (Lolium perenne [5]; 30 g/ha, Example 7): 65%
Compound A alone (% control) (Lolium perenne [5]; 30 g/ha, Example 13): 28%
Compound A alone (% control) (Lolium perenne [5]; 60 g/ha, Example 7): 75%
Compound A alone (% control) (Lolium perenne [5]; 60 g/ha, Example 8): 75%
Compound A alone (% control) (Lolium perenne [5]; 60 g/ha, Example 11): 40%
Compound A alone (% control) (Lolium perenne [5]; 60 g/ha, Example 13): 63%
Compound A alone (% control) (Alopecurus myosuroides [6]; 3.75 g/ha, Example 1B): 10%
Compound A alone (% control) (Alopecurus myosuroides [6]; 3.75 g/ha, Example 12): 0%
Compound A alone (% control) (Alopecurus myosuroides [6]; 3.75 g/ha, Example 13): 3%
Compound A alone (% control) (Alopecurus myosuroides [6]; 7.5 g/ha, Example 1B): 28%
Compound A alone (% control) (Alopecurus myosuroides [6]; 7.5 g/ha, Example 4): 23%
Compound A alone (% control) (Alopecurus myosuroides [6]; 7.5 g/ha, Example 5): 3%
Compound A alone (% control) (Alopecurus myosuroides [6]; 7.5 g/ha, Example 13): 5%
Compound A alone (% control) (Alopecurus myosuroides [6]; 15 g/ha, Example 1B): 45%
Compound A alone (% control) (Alopecurus myosuroides [6]; 15 g/ha, Example 4): 28%
Compound A alone (% control) (Alopecurus myosuroides [6]; 15 g/ha, Example 5): 8%
Compound A alone (% control) (Alopecurus myosuroides [6]; 15 g/ha, Example 12): 0%
Compound A alone (% control) (Alopecurus myosuroides [6]; 15 g/ha, Example 13): 8%
Compound A alone (% control) (Alopecurus myosuroides [6]; 30 g/ha, Example 4): 50%
Compound A alone (% control) (Alopecurus myosuroides [6]; 30 g/ha, Example 5): 23%
Compound A alone (% control) (Alopecurus myosuroides [6]; 30 g/ha, Example 12): 10%
Compound A alone (% control) (Alopecurus myosuroides [6]; 30 g/ha, Example 13): 15%
Compound A alone (% control) (Alopecurus myosuroides [6]; 30 g/ha, Example 14): 15%
Compound A alone (% control) (Alopecurus myosuroides [6]; 60 g/ha, Example 5): 28%
Compound A alone (% control) (Alopecurus myosuroides [6]; 60 g/ha, Example 13): 43%
Compound A alone (% control) (Alopecurus myosuroides [6]; 60 g/ha, Example 14): 33%
Compound A alone (% control) (Stellaria media [7]; 3.75 g/ha, Example 1B): 10%
Compound A alone (% control) (Stellaria media [7]; 3.75 g/ha, Example 4): 28%
Compound A alone (% control) (Stellaria media [7]; 7.5 g/ha, Example 1B): 18%
Compound A alone (% control) (Stellaria media [7]; 7.5 g/ha, Example 13): 30%
Compound A alone (% control) (Stellaria media [7]; 15 g/ha, Example 1B): 45%
Compound A alone (% control) (Stellaria media [7]; 15 g/ha, Example 9): 70%
Compound A alone (% control) (Stellaria media [7]; 30 g/ha, Example 1B): 70%
Compound A alone (% control) (Veronica persica [8]): 80%
Compound A alone (% control) (Lamium purpureum [9]; 3.75 g/ha, Example 4): 20%
Compound A alone (% control) (Lamium purpureum [9]; 3.75 g/ha, Example 7): 20%
Compound A alone (% control) (Lamium purpureum [9]; 3.75 g/ha, Example 8): 20%
Compound A alone (% control) (Lamium purpureum [9]; 3.75 g/ha, Example 12): 35%
Compound A alone (% control) (Lamium purpureum [9]; 7.5 g/ha, Example 7): 35%
Compound A alone (% control) (Lamium purpureum [9]; 7.5 g/ha, Example 8): 35%
Compound A alone (% control) (Lamium purpureum [9]; 7.5 g/ha, Example 12): 55%
Compound A alone (% control) (Lamium purpureum [9]; 15 g/ha, Example 1B): 83%
Compound A alone (% control) (Lamium purpureum [9]; 15 g/ha, Example 7): 50%
Compound A alone (% control) (Lamium purpureum [9]; 15 g/ha, Example 8): 50%
Compound A alone (% control) (Papaver rhoeas [10]; 3.75 g/ha): 30%
Compound A alone (% control) (Papaver rhoeas [10]; 7.5 g/ha): 65%
Compound A alone (% control) (Veronica persica [11]; 3.75 g/ha, Example 1A): 13%
Compound A alone (% control) (Veronica persica [11]; 3.75 g/ha, Example 2): 0%
Compound A alone (% control) (Veronica persica [11]; 7.5 g/ha, Example 1A): 33%
Compound A alone (% control) (Veronica persica [11]; 7.5 g/ha, Example 2): 23%
Compound A alone (% control) (Veronica persica [11]; 15 g/ha, Example 2): 60%
Compound A alone (% control) (Alopecurus myosuroides [12]; 3.75 g/ha, Example 1A): 0%
Compound A alone (% control) (Alopecurus myosuroides [12]; 3.75 g/ha, Example 3): 0%
Compound A alone (% control) (Alopecurus myosuroides [12]; 7.5 g/ha, Example 1A): 5%
Compound A alone (% control) (Alopecurus myosuroides [12]; 7.5 g/ha, Example 3): 0%
Compound A alone (% control) (Lamium purpureum [13]): 10%
Compound A alone (% control) (Stellaria media [14]; 3.75 g/ha, Example 1A): 0%
Compound A alone (% control) (Stellaria media [14]; 7.5 g/ha, Example 1A): 10%
Compound A alone (% control) (Stellaria media [14]; 7.5 g/ha, Example 2): 5%
Compound A alone (% control) (Stellaria media [14]; 15 g/ha, Example 1A): 60%
